Source: ChEMBL document CHEMBL1138550, “Adamantane derivatives of thiazolyl-N-substituted amide, as possible non-steroidal anti-inflammatory agents” (2009)

Columns and labels:
[1] = test system: Rattus norvegicus; assay: Antiinflammatory activity in AKR rat assessed as inhibition of carrageenan-induced right hind paw oedema at 0.2 mmol/kg, ip coadministered with carrageenan relative to control; assay type: functional
[2] = molecular target: T1, Prostaglandin G/H synthase 1 (Ovis aries) (UniProt P05979); assay: Inhibition of ovine COX1 at 200 uM by enzyme immuno assay
T1 sequence (whole entry): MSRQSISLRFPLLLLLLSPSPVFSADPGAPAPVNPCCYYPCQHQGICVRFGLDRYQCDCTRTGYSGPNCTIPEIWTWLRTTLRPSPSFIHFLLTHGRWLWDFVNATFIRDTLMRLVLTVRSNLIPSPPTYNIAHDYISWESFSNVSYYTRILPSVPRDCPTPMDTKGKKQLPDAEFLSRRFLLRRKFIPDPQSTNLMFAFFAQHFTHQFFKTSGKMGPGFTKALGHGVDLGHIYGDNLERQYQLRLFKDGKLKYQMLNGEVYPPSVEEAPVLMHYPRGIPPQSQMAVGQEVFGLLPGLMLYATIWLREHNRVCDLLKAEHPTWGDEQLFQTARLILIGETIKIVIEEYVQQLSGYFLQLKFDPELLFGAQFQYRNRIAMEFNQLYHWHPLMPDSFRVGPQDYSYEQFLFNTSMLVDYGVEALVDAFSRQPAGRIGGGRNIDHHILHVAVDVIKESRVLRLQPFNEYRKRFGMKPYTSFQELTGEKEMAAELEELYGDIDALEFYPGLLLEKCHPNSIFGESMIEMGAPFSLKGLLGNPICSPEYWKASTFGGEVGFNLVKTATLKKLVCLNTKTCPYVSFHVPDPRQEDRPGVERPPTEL

[3] = molecular target: T2, Seed linoleate 13S-lipoxygenase-1 (Glycine max) (UniProt P08170); assay: Inhibition of soybean LOX1 at 100 uM
T2 sequence (whole entry): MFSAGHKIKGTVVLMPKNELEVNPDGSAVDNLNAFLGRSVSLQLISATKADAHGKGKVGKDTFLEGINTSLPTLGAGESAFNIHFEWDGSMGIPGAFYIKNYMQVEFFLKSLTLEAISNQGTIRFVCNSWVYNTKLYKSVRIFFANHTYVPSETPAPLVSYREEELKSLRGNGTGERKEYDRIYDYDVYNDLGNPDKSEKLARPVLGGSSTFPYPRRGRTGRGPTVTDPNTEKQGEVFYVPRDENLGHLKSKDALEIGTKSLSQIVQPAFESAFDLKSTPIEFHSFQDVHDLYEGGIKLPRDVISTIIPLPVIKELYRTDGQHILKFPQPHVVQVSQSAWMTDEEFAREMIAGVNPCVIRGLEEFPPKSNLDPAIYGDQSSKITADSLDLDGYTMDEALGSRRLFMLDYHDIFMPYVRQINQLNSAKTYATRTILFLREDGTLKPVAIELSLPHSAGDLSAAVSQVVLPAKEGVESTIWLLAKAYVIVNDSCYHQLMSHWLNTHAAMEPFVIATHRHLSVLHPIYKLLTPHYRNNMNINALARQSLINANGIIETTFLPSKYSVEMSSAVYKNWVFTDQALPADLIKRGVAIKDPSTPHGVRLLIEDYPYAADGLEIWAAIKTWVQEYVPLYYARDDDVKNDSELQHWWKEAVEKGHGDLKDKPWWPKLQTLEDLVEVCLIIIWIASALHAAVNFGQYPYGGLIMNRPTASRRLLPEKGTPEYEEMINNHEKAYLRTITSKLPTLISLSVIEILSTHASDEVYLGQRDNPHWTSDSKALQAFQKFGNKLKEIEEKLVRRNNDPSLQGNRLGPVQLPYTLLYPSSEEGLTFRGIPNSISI

[4] = molecular target: T3, Prostaglandin G/H synthase 2 (Homo sapiens) (UniProt P35354); assay: Inhibition of human recombinant COX2 at 200 uM by enzyme immuno assay
T3 sequence (whole entry): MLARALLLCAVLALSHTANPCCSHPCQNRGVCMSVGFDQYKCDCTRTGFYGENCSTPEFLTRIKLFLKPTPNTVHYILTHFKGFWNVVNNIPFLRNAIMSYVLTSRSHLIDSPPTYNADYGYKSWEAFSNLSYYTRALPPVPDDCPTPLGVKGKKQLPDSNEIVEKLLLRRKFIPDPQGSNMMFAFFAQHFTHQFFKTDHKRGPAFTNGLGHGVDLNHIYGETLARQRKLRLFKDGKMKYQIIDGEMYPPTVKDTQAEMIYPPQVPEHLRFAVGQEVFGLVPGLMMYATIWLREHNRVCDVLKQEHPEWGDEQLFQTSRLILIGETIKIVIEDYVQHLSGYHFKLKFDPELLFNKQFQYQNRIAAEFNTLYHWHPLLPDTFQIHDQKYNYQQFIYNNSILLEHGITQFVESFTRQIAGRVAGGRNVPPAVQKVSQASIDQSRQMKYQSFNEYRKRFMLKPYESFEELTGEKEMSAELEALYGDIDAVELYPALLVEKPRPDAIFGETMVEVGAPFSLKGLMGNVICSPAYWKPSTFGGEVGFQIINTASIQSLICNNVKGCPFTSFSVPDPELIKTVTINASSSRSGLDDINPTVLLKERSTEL

[5] = molecular target: T1, Prostaglandin G/H synthase 1 (Ovis aries); assay: Inhibition of ovine COX1 at 20 uM by enzyme immuno assay
[6] = molecular target: T3, Prostaglandin G/H synthase 2 (Homo sapiens); assay: Inhibition of human recombinant COX2 at 20 uM by enzyme immuno assay

| inhibition [3] | Structure (SMILES) | inhibition in vivo at 200 µmol/kg [1] | other results |
| --- | --- | --- | --- |
|  | O=C(CN1CCN(c2ccccc2)CC1)Nc1nccs1 | 72.1% |  |
| 33% | O=C(CN1CCN(c2ccccc2)CC1)Nc1nc(C23CC4CC(CC(C4)C2)C3)cs1 | 47.6% | inhibition [2]: 43.6%; inhibition [4]: 15.8% |
| 0% | O=C(CN1CCOCC1)Nc1nc(C23CC4CC(CC(C4)C2)C3)cs1 | 57.8% | inhibition [2]: 27.9%; inhibition [4]: 35.3% |
|  | COc1ccc(-c2csc(NC(=O)CN3CCCC3)n2)cc1 | 55% |  |
| 8.4% | O=C(CCN1CCOCC1)Nc1nc(C23CC4CC(CC(C4)C2)C3)cs1 | 49.2% |  |
|  | COc1ccc(-c2csc(NC(=O)CN3CCCCC3)n2)cc1 | 53.3% |  |
|  | CN(C)CC(=O)Nc1nccs1 | 28.4% |  |
| 0% | O=C(CN1CCCCC1)Nc1nc(C23CC4CC(CC(C4)C2)C3)cs1 | 26.6% |  |
|  | COc1ccc(-c2csc(NC(=O)CCN3CCCC3)n2)cc1 | 56.2% |  |
|  | Cc1csc(NC(=O)CN(C)C)n1 | 37.6% |  |
|  | O=C(CCN1CCCC1)Nc1nccs1 | 64.1% |  |
| 26.4% | CN(C)CC(=O)Nc1nc(C23CC4CC(CC(C4)C2)C3)cs1 | 48% | inhibition [2]: 25%; inhibition [4]: 3.6% |
|  | CN(C)CC(=O)Nc1nc(-c2ccccc2)cs1 | 52% |  |
|  | COc1ccc(-c2csc(NC(=O)CN(C)C)n2)cc1 | 35% |  |
|  | COc1ccc(-c2csc(NC(=O)CCN3CCOCC3)n2)cc1 | 55.4% |  |
| 5% | O=C(CN1CCCC1)Nc1nc(C23CC4CC(CC(C4)C2)C3)cs1 | 69.7% | inhibition [2]: 33.6%; inhibition [4]: 12.2% |
|  | CN1CCN(CC(=O)Nc2nc(C34CC5CC(CC(C5)C3)C4)cs2)CC1 | 30% |  |
| 1% | CN(C)CCC(=O)Nc1nc(C23CC4CC(CC(C4)C2)C3)cs1 | 81.5% | inhibition [2]: 25%; inhibition [4]: 8.6% |
|  | O=C(CCN1CCCC1)Nc1nc(-c2ccccc2)cs1 | 68.4% |  |
|  | O=C(CCN1CCCC1)Nc1nc(C23CC4CC(CC(C4)C2)C3)cs1 | 36.8% |  |
| 39% | O=C(CCN1CCN(c2ccccc2)CC1)Nc1nc(C23CC4CC(CC(C4)C2)C3)cs1 | 55.9% | inhibition [5]: 28.6%; inhibition [6]: 17.3% |
|  | O=C(CN1CCCC1)Nc1nc(-c2ccccc2)cs1 | 49.2% |  |
